Experimental data as given in ChEMBL document CHEMBL3991601, “The target landscape of clinical kinase drugs” (Science, 2017).
The source made the active and inactive calls.

Columns and labels:
Septin-9 = target: T1, Septin-9 (Homo sapiens, UniProt Q9UHD8)
T1 sequence (Q9UHD8 whole entry): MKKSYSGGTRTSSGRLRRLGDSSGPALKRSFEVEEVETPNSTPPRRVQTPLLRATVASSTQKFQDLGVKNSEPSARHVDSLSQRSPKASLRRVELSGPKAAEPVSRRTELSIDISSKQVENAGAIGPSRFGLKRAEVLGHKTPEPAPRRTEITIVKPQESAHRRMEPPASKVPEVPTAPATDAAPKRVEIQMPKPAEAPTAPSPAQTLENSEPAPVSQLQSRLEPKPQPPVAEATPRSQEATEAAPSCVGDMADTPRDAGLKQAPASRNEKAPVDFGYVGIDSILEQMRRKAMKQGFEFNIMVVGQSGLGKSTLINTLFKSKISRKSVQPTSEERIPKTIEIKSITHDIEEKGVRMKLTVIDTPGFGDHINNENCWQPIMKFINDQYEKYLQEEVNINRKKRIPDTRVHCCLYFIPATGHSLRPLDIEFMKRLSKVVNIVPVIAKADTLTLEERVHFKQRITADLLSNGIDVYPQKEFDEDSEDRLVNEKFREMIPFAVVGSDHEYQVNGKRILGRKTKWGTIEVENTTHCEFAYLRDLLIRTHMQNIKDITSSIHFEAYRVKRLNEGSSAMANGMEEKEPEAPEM

[1] = target: T2, Probable ATP-dependent RNA helicase DDX6 (Homo sapiens, UniProt P26196)
T2 sequence (P26196 whole entry): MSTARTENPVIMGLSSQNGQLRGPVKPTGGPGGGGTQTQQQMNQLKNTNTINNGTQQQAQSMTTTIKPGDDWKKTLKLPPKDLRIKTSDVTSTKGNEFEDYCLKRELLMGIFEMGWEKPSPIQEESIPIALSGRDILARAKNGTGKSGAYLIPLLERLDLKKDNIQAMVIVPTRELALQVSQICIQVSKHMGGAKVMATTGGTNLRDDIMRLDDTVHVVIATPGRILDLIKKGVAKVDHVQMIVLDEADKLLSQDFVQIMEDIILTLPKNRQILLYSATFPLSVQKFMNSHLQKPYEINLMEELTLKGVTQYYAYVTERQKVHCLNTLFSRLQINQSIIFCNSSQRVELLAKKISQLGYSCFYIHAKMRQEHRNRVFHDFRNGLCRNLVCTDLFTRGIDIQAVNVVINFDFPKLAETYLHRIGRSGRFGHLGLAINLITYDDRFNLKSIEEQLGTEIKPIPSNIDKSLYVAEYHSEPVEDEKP

[2] = target: T3, Long-chain-fatty-acid--CoA ligase 5 (Homo sapiens, UniProt Q9ULC5)
T3 sequence (Q9ULC5 whole entry): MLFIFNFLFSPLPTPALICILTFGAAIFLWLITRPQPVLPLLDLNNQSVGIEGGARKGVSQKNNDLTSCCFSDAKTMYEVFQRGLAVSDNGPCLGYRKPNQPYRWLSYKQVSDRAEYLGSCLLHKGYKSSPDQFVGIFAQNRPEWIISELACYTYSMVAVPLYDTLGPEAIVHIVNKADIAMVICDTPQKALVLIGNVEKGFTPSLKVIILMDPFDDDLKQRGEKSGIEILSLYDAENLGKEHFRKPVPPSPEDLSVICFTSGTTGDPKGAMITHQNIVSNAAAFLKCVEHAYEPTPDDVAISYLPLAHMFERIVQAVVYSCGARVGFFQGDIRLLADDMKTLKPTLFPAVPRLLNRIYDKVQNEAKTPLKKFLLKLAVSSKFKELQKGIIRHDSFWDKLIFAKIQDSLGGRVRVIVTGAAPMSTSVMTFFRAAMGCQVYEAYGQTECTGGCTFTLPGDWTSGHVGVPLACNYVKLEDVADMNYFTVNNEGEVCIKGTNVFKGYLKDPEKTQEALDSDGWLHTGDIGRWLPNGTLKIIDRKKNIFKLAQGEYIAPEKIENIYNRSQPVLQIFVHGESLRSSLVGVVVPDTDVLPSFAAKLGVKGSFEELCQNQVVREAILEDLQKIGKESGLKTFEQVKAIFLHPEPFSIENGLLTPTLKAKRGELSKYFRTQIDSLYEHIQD

[3] = target: Myosin light chain kinase, smooth muscle (Homo sapiens, UniProt Q15746)
Sequence of Myosin light chain kinase, smooth muscle (Q15746 whole entry): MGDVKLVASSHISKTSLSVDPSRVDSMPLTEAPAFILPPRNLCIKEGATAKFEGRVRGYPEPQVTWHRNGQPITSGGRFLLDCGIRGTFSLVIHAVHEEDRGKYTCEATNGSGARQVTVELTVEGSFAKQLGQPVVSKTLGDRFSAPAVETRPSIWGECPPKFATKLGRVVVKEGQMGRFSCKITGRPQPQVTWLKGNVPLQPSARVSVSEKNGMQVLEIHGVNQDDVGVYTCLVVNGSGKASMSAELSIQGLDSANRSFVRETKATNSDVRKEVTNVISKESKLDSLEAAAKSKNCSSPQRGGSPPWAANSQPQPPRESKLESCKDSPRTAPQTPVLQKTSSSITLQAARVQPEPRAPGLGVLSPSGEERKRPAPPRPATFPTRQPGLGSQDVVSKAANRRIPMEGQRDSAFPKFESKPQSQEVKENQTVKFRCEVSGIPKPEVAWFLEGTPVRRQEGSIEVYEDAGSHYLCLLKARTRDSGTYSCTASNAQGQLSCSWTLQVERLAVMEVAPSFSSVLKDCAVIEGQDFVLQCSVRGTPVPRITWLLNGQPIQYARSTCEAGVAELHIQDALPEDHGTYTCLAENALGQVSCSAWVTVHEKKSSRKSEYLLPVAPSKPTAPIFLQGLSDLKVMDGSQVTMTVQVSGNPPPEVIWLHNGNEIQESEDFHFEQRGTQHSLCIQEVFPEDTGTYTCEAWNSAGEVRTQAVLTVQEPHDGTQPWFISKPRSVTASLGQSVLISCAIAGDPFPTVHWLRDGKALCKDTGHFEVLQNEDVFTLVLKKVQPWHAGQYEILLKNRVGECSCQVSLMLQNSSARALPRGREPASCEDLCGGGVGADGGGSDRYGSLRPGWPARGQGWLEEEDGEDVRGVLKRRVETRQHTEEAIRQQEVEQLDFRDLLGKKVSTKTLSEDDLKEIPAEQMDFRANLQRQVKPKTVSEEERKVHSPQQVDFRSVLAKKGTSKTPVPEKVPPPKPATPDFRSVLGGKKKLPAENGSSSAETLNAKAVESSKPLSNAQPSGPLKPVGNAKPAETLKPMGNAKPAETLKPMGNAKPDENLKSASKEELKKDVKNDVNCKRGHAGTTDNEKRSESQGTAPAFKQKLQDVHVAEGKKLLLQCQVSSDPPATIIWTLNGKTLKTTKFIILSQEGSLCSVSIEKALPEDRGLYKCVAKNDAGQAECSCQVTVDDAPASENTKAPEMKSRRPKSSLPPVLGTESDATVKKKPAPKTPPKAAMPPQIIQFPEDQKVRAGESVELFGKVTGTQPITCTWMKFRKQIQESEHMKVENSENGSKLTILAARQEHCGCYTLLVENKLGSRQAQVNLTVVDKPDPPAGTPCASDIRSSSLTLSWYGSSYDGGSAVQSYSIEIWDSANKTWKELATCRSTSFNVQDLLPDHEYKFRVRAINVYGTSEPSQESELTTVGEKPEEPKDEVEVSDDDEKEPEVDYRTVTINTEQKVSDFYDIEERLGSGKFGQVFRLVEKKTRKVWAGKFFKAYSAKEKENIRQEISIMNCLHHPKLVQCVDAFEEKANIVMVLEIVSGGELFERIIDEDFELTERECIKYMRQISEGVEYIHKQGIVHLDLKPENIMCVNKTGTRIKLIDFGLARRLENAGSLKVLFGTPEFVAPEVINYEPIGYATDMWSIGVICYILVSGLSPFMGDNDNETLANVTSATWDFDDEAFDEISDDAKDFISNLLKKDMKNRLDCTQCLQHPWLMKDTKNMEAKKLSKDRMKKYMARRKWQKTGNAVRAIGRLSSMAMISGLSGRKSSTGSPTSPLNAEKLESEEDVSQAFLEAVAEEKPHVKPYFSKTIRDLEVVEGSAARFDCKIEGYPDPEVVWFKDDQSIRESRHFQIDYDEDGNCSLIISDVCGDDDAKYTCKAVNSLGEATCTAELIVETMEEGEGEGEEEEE

[4] = target: T4, DNA replication licensing factor MCM4 (Homo sapiens, UniProt P33991)
T4 sequence (P33991 whole entry): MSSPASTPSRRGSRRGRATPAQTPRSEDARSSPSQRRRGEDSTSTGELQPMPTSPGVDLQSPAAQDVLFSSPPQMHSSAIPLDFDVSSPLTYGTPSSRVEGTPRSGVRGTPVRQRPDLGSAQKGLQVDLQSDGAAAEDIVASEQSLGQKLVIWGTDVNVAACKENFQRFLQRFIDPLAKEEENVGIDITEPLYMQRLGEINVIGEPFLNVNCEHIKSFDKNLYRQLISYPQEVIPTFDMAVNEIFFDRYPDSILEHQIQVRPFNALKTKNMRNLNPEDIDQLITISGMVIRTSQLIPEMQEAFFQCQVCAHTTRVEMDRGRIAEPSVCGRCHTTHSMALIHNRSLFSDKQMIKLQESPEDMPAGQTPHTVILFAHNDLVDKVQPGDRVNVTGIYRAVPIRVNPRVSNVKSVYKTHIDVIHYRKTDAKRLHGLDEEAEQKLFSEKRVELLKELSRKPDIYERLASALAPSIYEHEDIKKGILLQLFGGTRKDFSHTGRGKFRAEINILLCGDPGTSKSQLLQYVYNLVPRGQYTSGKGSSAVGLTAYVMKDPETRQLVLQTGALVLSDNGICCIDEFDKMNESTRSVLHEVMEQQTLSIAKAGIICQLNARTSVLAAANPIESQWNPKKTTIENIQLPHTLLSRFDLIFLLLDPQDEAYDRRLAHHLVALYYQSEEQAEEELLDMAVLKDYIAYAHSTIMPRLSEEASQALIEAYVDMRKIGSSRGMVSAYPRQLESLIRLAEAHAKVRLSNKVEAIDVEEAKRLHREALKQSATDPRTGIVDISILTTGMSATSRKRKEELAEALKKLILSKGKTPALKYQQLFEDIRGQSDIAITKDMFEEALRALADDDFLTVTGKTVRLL

Measured: Kd
Further: in the data inactive means no Kd found up to 30 µM.

COc1cc2nccc(Oc3ccc(NC(=O)C4(C(=O)Nc5ccc(F)cc5)CC4)cc3)c2cc1OC [CABOZANTINIB]
inactive: Septin-9 > 30 µM | [1] > 30 µM | [2] > 30 µM | [3] > 30 µM | [4] > 30 µM

NC[C@@](O)(c1ccc(Cl)cc1)c1ccc(-c2cn[nH]c2)cc1 [AT-13148]
inactive: Septin-9 > 30 µM | [1] > 30 µM | [2] > 30 µM | [3] > 30 µM | [4] > 30 µM
